What was measured:
isolated islet cells = format: cell-based
Procedure: Single islets were hand-picked from a Petri dish under microscopy and transferred to wells in a 96-well microculture plate. Micronutrients comprising alpha-tocopherol (50 μM), gamma-tocopherol (50 μM), and succinate (5 μM) were added to wells in various combinations, with regular media (no added micronutrients) used as control. Islet cell survival was indicated by maintenance of a more compact cell mass, with disruption of the cell mass indicating islet cell death detected by microscopic means. […] Samples are shown in duplicate (a—middle panel, and b—bottom panel), with the corresponding control in the top panel.

porcine islets = assay: Islet morphology under anoxia (photomicrographs); format: cell-based; settings: 100 μM alone; up to 30 hrs anoxia; versus untreated islets
Procedure: Porcine islets were hand picked and placed in wells (one islet/well in triplicates) in a 96 micro plate. The islets were pre-incubated either in regular porcine culture media (M199) or in media supplemented with alpha-tocopherol 100 μM, gamma-tocopherol 100 μM or the combination of alpha-+gamma-tocopherol, 50 μM each prior to exposure to anoxia. Islets were then incubated for additional 30 hrs either under normoxia (control—95% Air, 5%CO2) or anoxia (95%N2, 5%CO2) in the presence or absence of the indicated vitamin E concentration. At four different time points (0 h, 12 h, 24 h and 30 h), islets were removed from the incubator, examined microscopically and photomicrographs were obtained. Panel A: Porcine islets cultured with regular porcine culture media (M199) under anoxia. As indicated by the photomicrographs, anoxia caused a significant change in to the islet morphology. […]
Porcine islets were isolated and then cultured for 48 hours according to standard protocols Islets were then cultured for an additional 18-24 hours in media in the presence or absence of alpha-tocopherol and gamma-tocopherol (50 μM each). […] Islet quality was assessed at time intervals ranging from 6 to 24 hours from the initiation of exposure to anoxia with Oxygen Consumption Rate (OCR), ATP, Caspase 3/7 activity measurements (all normalized to DNA), microphotography and transplantation into diabetic nude mice. […]

[1] = isolated islet cells in culture medium

Row | SMILES | protective benefit for preventing cell death in isolated islet cells (comparison) (isolated islet cells; compared with alpha-tocopherol or either tocopherol alone) | islet morphology after exposure to anoxia (porcine islets) | concentration at which increased benefit is noted (isolated islet cells; [1]) | concentration at which protective effect is exhibited (isolated islet cells; [1])
1 | Cc1c(O)cc2c(c1C)O[C@](C)(CCC[C@H](C)CCC[C@H](C)CCCC(C)C)CC2 [gamma-tocopherol] | more protective benefit | more normal morphology | – | –
2 | Cc1c(C)c2c(c(C)c1O)CC[C@@](C)(CCC[C@H](C)CCC[C@H](C)CCCC(C)C)O2 [alpha-tocopherol] | – | more normal morphology | at least 50 μM | at least 10 μM

From patent US20050276794A1, “Composition and method for improving pancreatic islet cell survival” (priority 2004, published 2005)
